In patent US20260167656A1, “PHOSPHORAMIDATE COMPOUNDS AND USES THEREOF” (ALLORION THERAPEUTICS INC, priority 2022, published 2026) one finds IC50 data, which are given here for 6 compounds.

Assay [1] relates to non-small cell lung cancer cell line H460. Kind of assay: In vitro human cancer cell line cytotoxicity (proliferation) assay in H460, CellTiter-Glo, 72 hours. Format: cell-based. To be noted: Homo sapiens, DMSO condition (no AKR1C3 inhibitor), read-out: CTG H460: Avg IC50 (nM) [Assay Condition: DMSO]. The method in brief: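 IC50s in nM come from CellTiter-Glo viability read after 72 h of compound exposure. Compounds went in from 10 mM DMSO stocks onto H460 cells, which had been plated at 3×10^3 per well and grown 24 h beforehand at 37 °C, 5% CO2.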
Background: Cellular ATP, detected with luciferase, serves as a proxy for viable cell number.

Assay [2] shares this test system. Briefly: H460 proliferation assay in the presence of 3 uM ASP9521 (AKR1C3 specific inhibitor). Format: cell-based, human. To be noted: H460 cells, CellTiter-Glo, 72 hours, in the presence of 3 uM ASP9521 added 4 hours prior to compounds; read-out: CTG H460: Avg IC50 (nM) [Assay Condition: ASP9521]. The procedure, abridged:
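AKR1C3 blocked with 3 uM ASP9521 given 4 h ahead of test compounds. H460 cells, plated 24 h earlier, were then treated for 72 h at 37 °C in 5% CO2. CellTiter-Glo luminescence gave viability.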

One may read the IC50 as the concentration at which inhibition is half-maximal. With `Cn1cnc(-c2cccc(Oc3c([N+](=O)[O-])ccc4c3CC[C@@H]4OP(=O)(N3CC3)N3CC3)c2)c1` [Example 345], the IC50 is less than 10 nM in assay [1] (NCI-H460, H460 cells) and 2110 nM in assay [2].
`O=[N+]([O-])c1ccc2c(c1Oc1ccc(S(=O)(=O)C3CC3)cc1)CC[C@@H]2OP(=O)(N1CC1)N1CC1` [Example 512]: the IC50 was less than 10 nM in assay [1] (NCI-H460, 72 h, H460 cells) and 83.3 nM in assay [2].
The corresponding values for `O=C(NC1CCC1)c1ccc(Oc2c([N+](=O)[O-])ccc3c2CCC3OP(=O)(N2CC2)N2CC2)cc1` (stereo not drawn) [Example 52] are 10 to 50 nM and 700 nM.
The corresponding values for `Cn1ccc2cc(Oc3c([N+](=O)[O-])ccc4c3CC[C@H]4OP(=O)(N3CC3)N3CC3)ccc21` [Example 386] are less than 10 nM and 1410 nM.
The corresponding values for `O=[N+]([O-])c1ccc2c(c1Oc1cccc(-c3ccccn3)c1)CC[C@H]2OP(=O)(N1CC1)N1CC1` [Example 296] are less than 10 nM and 976 nM.
In the case of `Cn1cnc2cc(Oc3c([N+](=O)[O-])ccc4c3CCC4OP(=O)(N3CC3)N3CC3)ccc21` (stereo not drawn) [Example 390], the IC50 is less than 10 nM in assay [1] (NCI-H460, H460 cells) and 1410 nM in assay [2].
